From US11331339B2, “Compound composition with function of promoting bone and joint health and application thereof” (Chenland Nutritionals, Inc., priority 2019, dated 2022)

What was measured:
[1] = tested on: IL-6; test: Test I: IL-6 content in serum of rats, same administration time and same dosage; assay type: in vivo, wistar rats; conditions: rat serum, daily dosage 125 mg/kg
Protocol: Male wistar rats are randomly divided into a control group, a model group and an experimental group. Each group includes 10 rats. The rats are injected with papain for molding. The rats are administered for 28 days at the same time of molding. Before the rats are put to death, blood is taken from the abdominal vein and centrifuged to obtain serum. The IL-1β content is detected. Specific results are shown in Table 1: In addition, to verify the technical solution of the present invention and small daily dosage of the single glucosamine, the inventor respectively experiments the male wistar rats in the same administration time and under the same administration dosage, and detects the IL-6 content in the serum.

[2] = tested on: IL-1β; test: Test I: IL-1β content in serum of rats injected with papain, administered 28 days; assay type: in vivo, wistar rats; conditions: rat serum, papain model, daily dosage 126 mg/kg
Protocol: Male wistar rats are randomly divided into a control group, a model group and an experimental group. Each group includes 10 rats. The rats are injected with papain for molding. The rats are administered for 28 days at the same time of molding. Before the rats are put to death, blood is taken from the abdominal vein and centrifuged to obtain serum. The IL-1β content is detected. Specific results are shown in Table 1: The blank group includes normal rats for arthritis modeling. The model group includes rats not administered after modeling. The experimental administration group administers the product of the present invention to the rats. The glucosamine sulfate control group administers glucosamine to the rats. The glucosamine+chondroitin sulfate+collagen control group administers glucosamine+chondroitin sulfate+collagen to the rats. IL-1β is an inflammatory factor in the serum. Normal rats contain the lowest levels of inflammatory factors, and the rats with arthritis but not administered contain the highest levels of inflammatory factors. If different products are administered to rats, the degree of arthritis is alleviated to a certain extent and the levels of inflammatory factors in the rats are reduced to be lower than that of the highest model group, but higher than normal rats.

[3] = tested on: wistar rats injected with papain; test: Test II: tenderness thresholds at modeling joints, measured with a tenderness meter; assay type: in vivo; conditions: papain model, 28 days, daily dosage 126 mg/kg
Protocol: Male wistar rats are randomly divided into a control group, a model group and an experimental group. Each group includes 10 rats. The rats are injected with papain for molding. The rats are administered for 28 days at the same time of molding. Before the rats are put to death, the tenderness thresholds at modeling joints are measured with a tenderness meter.

[4] = tested on: wistar rats injected with papain; test: Test IV: walking pain score from sole marks; assay type: in vivo; conditions: score 0-4, papain model, 28 days, daily dosage 126 mg/kg
Protocol: Male wistar rats are randomly divided into a control group, a model group and an experimental group. Each group includes 10 rats. The rats are injected with papain for molding. The rats are administered for 28 days at the same time of molding. Before the rats are put to death, the left and right soles of the rats are evenly imprinted with printing ink of the same color and the rats walk by 0.4 m on a self-made semi-closed rat walking passage. The sole marks are photographed. Three persons independently score the walking pain based on the sole photos according to the following scoring standard for walking pain and measure the walking pain (when the limbs have a pain reaction, the rats move with the minimum contact area of the paws to reduce the pressure on the affected limbs; and when the left and right feet are uneven in stress and the gait is changed, the colors of the soles are different). The sole is divided into four regions: if one region of the left sole is darker than the right sole, the score is 1; if two regions are darker, the score is 2; and the score is added in sequence (0-4 scores). […] The rats administered with the product can alleviate the arthritis to a certain extent, and can walk slightly normally, so as to reflect the degree of arthritis according to the walking scores.

Question: For `N[C@H]1C(O)O[C@H](CO)[C@@H](O)[C@@H]1O.O=S(=O)(O)O` (some centres unmarked) [Glucosamine sulfate control group 1, Glucosamine sulfate], which IL-6 content ([1]; listed as Glucosamine sulfate control group) is on record?
Answer: 146.19 ± 18.15 ng/L

Question: What about the IL-6 content ([1]; listed as glucosamine sulfate control group) of the same compound?
Answer: not obviously lower than the model group

Question: And the IL-1β content [2]?
Answer: 9.456 ± 1.657 ng/L

Question: And the Tenderness thresholds [3]?
Answer: 5.607 ± 0.2602 newton

Question: What about the “Scores of walking pain” value [4] of the same compound?
Answer: 0.5 ± 0.2303
